Assays:
[1] = molecular target: T1, L858R/T790M/C797S triple mutant EGFR (Homo sapiens, UniProt P00533, C797S/L858R/T790M); assay: Enzymology experiment in vitro (HTRF/FRET kinase activity), L858R/T790M/C797S triple mutant EGFR; format: biochemical; conditions: HTRF KinEASE-TK, read-out: EGFR (L858R/T790M/C797S) IC50
T1 construct: purchased Signalchem
Method in brief: (§1)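 HTRF KinEASE-TK format: EGFR enzyme preincubated with compound 10 min at room temperature, then peptide substrate plus ATP added for 40 min. Detection with EDTA, XL665-streptavidin and Eu³⁺-labeled antibody for 1 h.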

[2] = molecular target: Ba/F3 De119/T790M/C797S EGFR triple mutant cell line (Homo sapiens, UniProt P00533, T790M/C797S, cells depend on it, form not given); assay: Cell proliferation inhibition experiment (CellTiter-Glo), Ba/F3 De119/T790M/C797S; format: cell-based; conditions: Ba/F3 Del19/T790M/C797S EGFR triple mutant cells, 72 hours, Cell Titer-Glo; read-out: Ba/F3 (Del19/T790M/C797S) IC50
Sequence of Ba/F3 De119/T790M/C797S EGFR triple mutant cell line (P00533 with tags, fused parts or gaps DEL746-750/T790M/C797S, form open): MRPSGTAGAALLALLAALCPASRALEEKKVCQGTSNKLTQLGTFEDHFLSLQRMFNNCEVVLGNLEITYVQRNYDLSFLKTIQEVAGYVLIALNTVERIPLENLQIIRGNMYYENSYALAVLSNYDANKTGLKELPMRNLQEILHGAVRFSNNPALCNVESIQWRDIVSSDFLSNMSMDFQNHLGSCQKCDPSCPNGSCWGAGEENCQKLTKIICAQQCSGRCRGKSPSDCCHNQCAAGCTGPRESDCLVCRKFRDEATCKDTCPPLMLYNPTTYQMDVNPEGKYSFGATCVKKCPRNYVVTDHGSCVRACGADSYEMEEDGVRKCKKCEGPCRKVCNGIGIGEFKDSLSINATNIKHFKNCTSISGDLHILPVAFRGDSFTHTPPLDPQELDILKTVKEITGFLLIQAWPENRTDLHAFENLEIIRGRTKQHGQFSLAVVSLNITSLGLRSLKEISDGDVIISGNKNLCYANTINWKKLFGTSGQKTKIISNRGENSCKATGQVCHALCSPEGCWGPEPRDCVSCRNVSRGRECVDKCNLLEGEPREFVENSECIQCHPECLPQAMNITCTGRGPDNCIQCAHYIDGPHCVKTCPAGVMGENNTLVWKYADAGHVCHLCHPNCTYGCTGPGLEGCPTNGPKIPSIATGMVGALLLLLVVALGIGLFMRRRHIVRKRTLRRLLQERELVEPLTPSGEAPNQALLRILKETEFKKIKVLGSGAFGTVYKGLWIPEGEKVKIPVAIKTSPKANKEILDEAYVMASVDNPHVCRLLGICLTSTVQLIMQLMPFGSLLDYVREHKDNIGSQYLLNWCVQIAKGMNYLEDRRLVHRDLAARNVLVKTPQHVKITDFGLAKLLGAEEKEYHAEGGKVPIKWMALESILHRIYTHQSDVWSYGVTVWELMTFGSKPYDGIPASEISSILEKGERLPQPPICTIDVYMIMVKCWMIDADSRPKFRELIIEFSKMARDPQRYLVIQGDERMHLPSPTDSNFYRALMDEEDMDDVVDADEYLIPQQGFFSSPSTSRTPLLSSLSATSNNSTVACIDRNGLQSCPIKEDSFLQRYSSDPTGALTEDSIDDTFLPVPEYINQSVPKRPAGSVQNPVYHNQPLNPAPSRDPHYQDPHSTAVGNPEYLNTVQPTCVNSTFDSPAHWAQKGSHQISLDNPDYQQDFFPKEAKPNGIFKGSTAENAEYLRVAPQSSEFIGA

[3] = system: EGFR wild-type cell line A431; assay: Cell proliferation inhibition experiment (CellTiter-Glo), A431; format: cell-based; conditions: Homo sapiens, A-431, 72 h, A431 cells, Cell Titer-Glo, read-out: A431 EGFR WT IC50
Method in brief: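 A431 cells, 800 per well, were cultured 24 h and then exposed to serially diluted compound (0.1% DMSO final) for 72 h at 37° C., 5% CO2.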

wild-type EGFR = molecular target: T2, wild-type EGFR (Homo sapiens, UniProt P00533); assay: Enzymology experiment in vitro (HTRF/FRET kinase activity), wild-type EGFR; format: biochemical; conditions: HTRF KinEASE-TK, read-out: EGFR (WT) IC50
T2 construct: purchased Signalchem
T2 sequence (P00533 25-1210): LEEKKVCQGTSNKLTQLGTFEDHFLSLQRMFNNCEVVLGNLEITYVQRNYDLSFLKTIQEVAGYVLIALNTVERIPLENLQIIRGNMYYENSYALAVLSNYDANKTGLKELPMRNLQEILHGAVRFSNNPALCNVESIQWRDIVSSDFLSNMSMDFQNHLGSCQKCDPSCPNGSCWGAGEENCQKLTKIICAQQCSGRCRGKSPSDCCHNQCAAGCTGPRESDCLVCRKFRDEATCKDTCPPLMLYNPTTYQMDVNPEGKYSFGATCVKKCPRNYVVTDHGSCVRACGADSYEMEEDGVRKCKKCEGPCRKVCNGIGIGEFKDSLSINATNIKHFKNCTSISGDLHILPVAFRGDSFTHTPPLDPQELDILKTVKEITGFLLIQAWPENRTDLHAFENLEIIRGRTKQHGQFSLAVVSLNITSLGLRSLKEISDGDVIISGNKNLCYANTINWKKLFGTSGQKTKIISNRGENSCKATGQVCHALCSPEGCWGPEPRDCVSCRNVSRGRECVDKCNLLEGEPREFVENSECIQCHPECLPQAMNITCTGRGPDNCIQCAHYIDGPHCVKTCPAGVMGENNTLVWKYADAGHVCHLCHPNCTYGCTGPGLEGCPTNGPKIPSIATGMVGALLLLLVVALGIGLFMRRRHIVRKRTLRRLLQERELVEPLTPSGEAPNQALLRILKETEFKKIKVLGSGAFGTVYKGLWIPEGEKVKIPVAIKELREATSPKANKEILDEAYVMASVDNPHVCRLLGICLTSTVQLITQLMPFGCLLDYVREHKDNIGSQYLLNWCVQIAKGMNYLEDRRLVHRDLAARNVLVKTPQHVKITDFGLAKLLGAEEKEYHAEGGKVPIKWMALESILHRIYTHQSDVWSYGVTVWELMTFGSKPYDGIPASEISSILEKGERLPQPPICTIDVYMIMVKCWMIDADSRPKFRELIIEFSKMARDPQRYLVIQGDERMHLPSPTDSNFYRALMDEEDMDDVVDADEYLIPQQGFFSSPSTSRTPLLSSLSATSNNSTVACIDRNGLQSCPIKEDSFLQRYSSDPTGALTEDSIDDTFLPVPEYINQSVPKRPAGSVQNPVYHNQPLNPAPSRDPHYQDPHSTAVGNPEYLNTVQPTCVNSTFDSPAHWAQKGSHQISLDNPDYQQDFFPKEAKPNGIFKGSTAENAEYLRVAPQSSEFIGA
Method in brief: as §1

[4] = molecular target: Ba/F3 L858R/T790M/C797S EGFR triple mutant cell line (Homo sapiens, UniProt P00533, T790M/C797S/L858R, cells depend on it); assay: Cell proliferation inhibition experiment (CellTiter-Glo), Ba/F3 L858R/T790M/C797S; format: cell-based; conditions: 72 hours, Cell Titer-Glo, read-out: Ba/F3 (L858R/T790M/C797S) IC50
Sequence of Ba/F3 L858R/T790M/C797S EGFR triple mutant cell line (P00533 whole entry T790M/C797S/L858R): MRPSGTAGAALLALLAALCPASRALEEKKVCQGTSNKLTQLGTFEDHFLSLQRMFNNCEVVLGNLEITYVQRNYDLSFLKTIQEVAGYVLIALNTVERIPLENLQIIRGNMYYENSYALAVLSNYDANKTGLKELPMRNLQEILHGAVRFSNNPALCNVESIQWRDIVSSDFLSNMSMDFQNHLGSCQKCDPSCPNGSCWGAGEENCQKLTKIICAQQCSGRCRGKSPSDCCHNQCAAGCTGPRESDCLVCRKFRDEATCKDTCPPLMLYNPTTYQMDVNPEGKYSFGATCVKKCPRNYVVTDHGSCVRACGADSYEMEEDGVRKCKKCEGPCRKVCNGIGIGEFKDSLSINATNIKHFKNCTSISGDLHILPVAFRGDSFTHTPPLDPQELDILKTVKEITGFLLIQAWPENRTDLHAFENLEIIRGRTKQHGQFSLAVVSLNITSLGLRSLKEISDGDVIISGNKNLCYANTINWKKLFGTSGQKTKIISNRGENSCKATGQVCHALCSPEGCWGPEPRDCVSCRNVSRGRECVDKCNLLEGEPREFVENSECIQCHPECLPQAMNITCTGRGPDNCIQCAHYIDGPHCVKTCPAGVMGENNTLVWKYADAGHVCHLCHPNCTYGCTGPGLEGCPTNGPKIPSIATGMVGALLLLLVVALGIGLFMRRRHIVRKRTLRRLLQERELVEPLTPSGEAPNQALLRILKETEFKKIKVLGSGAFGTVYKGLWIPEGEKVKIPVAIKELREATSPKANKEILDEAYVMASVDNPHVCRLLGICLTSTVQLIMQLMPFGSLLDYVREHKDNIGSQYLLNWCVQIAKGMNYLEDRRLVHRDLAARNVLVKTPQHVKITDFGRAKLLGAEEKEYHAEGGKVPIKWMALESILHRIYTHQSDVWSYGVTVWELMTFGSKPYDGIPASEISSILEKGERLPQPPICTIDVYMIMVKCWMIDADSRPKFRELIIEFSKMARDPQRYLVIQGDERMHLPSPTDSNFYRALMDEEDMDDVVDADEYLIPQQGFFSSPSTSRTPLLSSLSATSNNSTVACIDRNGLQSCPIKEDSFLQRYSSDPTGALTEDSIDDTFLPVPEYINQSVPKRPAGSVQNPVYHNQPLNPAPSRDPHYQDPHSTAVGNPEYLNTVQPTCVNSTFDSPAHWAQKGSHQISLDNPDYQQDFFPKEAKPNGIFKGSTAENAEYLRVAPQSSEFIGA

T1 sequence (P00533 25-1210 T790M/C797S/L858R): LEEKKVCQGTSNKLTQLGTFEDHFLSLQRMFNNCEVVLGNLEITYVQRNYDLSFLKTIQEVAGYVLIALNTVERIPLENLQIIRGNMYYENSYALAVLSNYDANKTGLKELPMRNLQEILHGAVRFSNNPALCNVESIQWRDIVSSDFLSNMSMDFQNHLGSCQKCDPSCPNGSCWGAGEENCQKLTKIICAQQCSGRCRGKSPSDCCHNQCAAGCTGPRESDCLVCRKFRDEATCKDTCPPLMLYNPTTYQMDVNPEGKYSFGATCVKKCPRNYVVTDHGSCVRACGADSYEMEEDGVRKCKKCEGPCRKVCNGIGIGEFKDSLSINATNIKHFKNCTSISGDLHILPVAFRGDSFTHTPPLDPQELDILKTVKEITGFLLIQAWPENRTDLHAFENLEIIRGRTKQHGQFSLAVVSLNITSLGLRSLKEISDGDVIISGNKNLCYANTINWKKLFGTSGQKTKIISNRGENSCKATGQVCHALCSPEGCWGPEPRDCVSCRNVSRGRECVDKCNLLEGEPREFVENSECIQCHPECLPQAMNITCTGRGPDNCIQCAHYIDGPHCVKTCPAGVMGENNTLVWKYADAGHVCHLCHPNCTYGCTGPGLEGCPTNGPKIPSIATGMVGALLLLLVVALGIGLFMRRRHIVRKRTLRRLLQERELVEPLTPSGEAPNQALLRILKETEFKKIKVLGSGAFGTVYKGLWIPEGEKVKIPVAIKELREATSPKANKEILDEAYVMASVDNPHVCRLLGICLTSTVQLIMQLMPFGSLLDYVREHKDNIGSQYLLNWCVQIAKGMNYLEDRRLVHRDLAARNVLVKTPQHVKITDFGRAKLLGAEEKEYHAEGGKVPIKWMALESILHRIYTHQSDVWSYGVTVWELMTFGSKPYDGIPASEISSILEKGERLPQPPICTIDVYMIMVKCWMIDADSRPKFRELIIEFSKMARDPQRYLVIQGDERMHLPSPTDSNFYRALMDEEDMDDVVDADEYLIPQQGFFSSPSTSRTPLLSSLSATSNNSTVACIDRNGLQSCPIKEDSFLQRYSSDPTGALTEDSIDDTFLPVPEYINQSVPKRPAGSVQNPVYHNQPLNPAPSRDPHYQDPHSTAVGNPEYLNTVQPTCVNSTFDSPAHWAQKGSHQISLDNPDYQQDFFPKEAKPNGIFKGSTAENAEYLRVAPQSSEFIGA

| IC50 [1] [nM] | GI50 [2] [nM] | IC50 [3] [nM] | IC50 (wild-type EGFR) [nM] | GI50 [4] [nM] | Compound |
| --- | --- | --- | --- | --- | --- |
| 0.62 | 2.07 | 37.2 | 3.42 | 9.96 | CN(C)CCN1CCOc2c(Nc3ncc(Br)c(Nc4ccc5nccnc5c4P(C)(C)=O)n3)cc(-c3cnn(C)c3)cc21 [compound 122] |
| 1.12 | 24.3 | 8840 | 121 | 82 | Cn1cc(-c2cc(Nc3ncc(Br)c(Nc4ccccc4P(C)(C)=O)n3)c(OCC(F)(F)F)nc2N2CCOCC2)cn1 [compound 123] |
| 1.2 | 3.93 | 516 | 8.35 | 7.93 | COc1cc(N2CCC(F)CC2)c(-c2cnn(C)c2)cc1Nc1ncc(Br)c(Nc2ccc3nccnc3c2P(C)(C)=O)n1 [compound 124] |
| 0.53 | 5.87 | 490 | 23.8 | 14.4 | COc1cc(N2CCOCC2)c(-c2cnn(C)c2)cc1Nc1ncc(Br)c(Nc2ccccc2NS(=O)(=O)C2CC2)n1 [compound 125] |
| 0.15 | 0.93 | 286 | 1.55 | 3.81 | COc1cc(N2CCOCC2)c(-c2cnn(C)c2)cc1Nc1ncc(Br)c(Nc2ccc3nccnc3c2NS(C)(=O)=O)n1 [compound 126] |
| 0.24 | 0.59 | 170 | 2.83 | 4.18 | COC[C@@H]1CN(c2cc(OC)c(Nc3ncc(Br)c(Nc4ccc5nccnc5c4P(C)(C)=O)n3)cc2-c2cnn(C)c2)CCO1 [compound 127] |
| 0.53 | 2.86 | 397 | 6.83 | 11.9 | COc1cc(N2CCC(OC)C2)c(-c2cnn(C)c2)cc1Nc1ncc(Br)c(Nc2ccc3nccnc3c2P(C)(C)=O)n1 (centres unmarked) [compound 128] |
| 0.05 | 1 | 73.5 | 1.44 | 9 | COc1cc(N2CCN3CCCC3C2)c(-c2cnn(C)c2)cc1Nc1ncc(Br)c(Nc2ccc3nccnc3c2P(C)(C)=O)n1 (centres unmarked) [compound 130] |
| 0.12 | 0.6 | 67.8 | 2.57 | 7.17 | COc1cc(N2CCN3CCCCC3C2)c(-c2cnn(C)c2)cc1Nc1ncc(Br)c(Nc2ccc3nccnc3c2P(C)(C)=O)n1 (centres unmarked) [compound 131] |
| 0.07 | 2.45 | 270 | 5.71 | 30 | COCCN1CCN(c2cc(OC)c(Nc3ncc(Br)c(Nc4ccccc4NS(C)(=O)=O)n3)cc2-c2cnn(C)c2)CC1 [compound 132] |
| 0.15 | 0.64 | 82.8 | 0.78 | 2.85 | COc1cc(N2CCC3(CCN(CCF)CC3)CC2)c(-c2cnn(C)c2)cc1Nc1ncc(Br)c(Nc2ccc3nccnc3c2P(C)(C)=O)n1 [compound 133, (6-((5-bromo-2-((4-(9-(2-fluoroethyl)-3,9-diazaspiro[5.5]undecan-3-yl)-2-methoxy-5-(1-methyl-1H-pyrazol-4-yl)phenyl)amino)pyrimidin-4-yl)amino)quinoxalin-5-yl)dimethylphosphine oxide] |
| 0.21 | 1.02 | 316 | 3.57 | 7.82 | COc1cc(N2CCOC(C)C2)c(-c2cnn(C)c2)cc1Nc1ncc(Br)c(Nc2ccc3nccnc3c2P(C)(C)=O)n1 (centres unmarked) [compound 134] |
| 0.53 | 9.31 | 630 | 30.7 | 11.9 | COc1cc(N2CCN(CCF)CC2)c(-c2cnn(C)c2)cc1Nc1ncc(Br)c(Nc2cc3c(cc2P(C)(C)=O)CC3)n1 [compound 138] |
| 0.24 | 1.59 | 61 | 0.57 | 2.33 | COCCN1CCC2(CC1)CCN(c1cc(OC)c(Nc3ncc(Br)c(Nc4ccc5nccnc5c4P(C)(C)=O)n3)cc1-c1cnn(C)c1)CC2 [compound 139] |
| 5.44 | 29.8 | 3670 | 94.6 | 62 | COc1cc(N2CCOCC2)c(-c2ccn(C)n2)cc1Nc1ncc(Br)c(Nc2ccc3nccnc3c2P(C)(C)=O)n1 [compound 140] |
| 0.18 | 2.26 | 194 | 1.14 | 5.16 | [2H]C1([2H])OC([2H])([2H])C([2H])([2H])N(c2cc(OC)c(Nc3ncc(C)c(Nc4ccc5nccnc5c4P(C)(C)=O)n3)cc2-c2cnn(C)c2)C1([2H])[2H] [compound 141] |
| 0.25 | 0.34 | 196 | 1.16 | 2.89 | COc1cc(N2CCC(C)(O)CC2)c(-c2cnn(C)c2)cc1Nc1ncc(Br)c(Nc2ccc3nccnc3c2P(C)(C)=O)n1 [compound 142] |

More lines, now with the values behind:

| Compound | IC50 [1] [nM] | GI50 [2] [nM] | IC50 [3] [nM] | IC50 (wild-type EGFR) [nM] | GI50 [4] [nM] |
| --- | --- | --- | --- | --- | --- |
| COc1cc(N2CCN(C3CC3)CC2)c(-c2cnn(C)c2)cc1Nc1ncc(Br)c(Nc2ccc3nccnc3c2P(C)(C)=O)n1 [compound 102] | 0.23 | 0.76 | 108 | 1.49 | 2.02 |
| COc1cc(N2CCN(CCF)CC2)c(-c2cnn(C)c2)cc1Nc1ncc(Br)c(Nc2ccc3nccnc3c2P(C)(C)=O)n1 [compound 103] | 0.13 | 0.51 | 152 | 1.57 | 5.02 |
| COc1cc(N2CCOC[C@H]2C)c(-c2cnn(C)c2)cc1Nc1ncc(Br)c(Nc2ccc3nccnc3c2P(C)(C)=O)n1 [compound 104] | 0.95 | 4.07 | 192 | 27.2 | 17.7 |
| COc1cc(N2CCNC(=O)C2)c(-c2cnn(C)c2)cc1Nc1ncc(Br)c(Nc2ccc3nccnc3c2P(C)(C)=O)n1 [compound 105] | 0.16 | 20.9 | 1190 | 5.62 | 61.9 |
| COc1cc(N2C[C@@H]3C[C@H]2CO3)c(-c2cnn(C)c2)cc1Nc1ncc(Br)c(Nc2ccc3nccnc3c2P(C)(C)=O)n1 [compound 107] | 1.3 | 11.2 | 380 | 26.4 | 30.9 |
| COc1cc(N2CCN(S(C)(=O)=O)CC2)c(-c2cnn(C)c2)cc1Nc1ncc(Br)c(Nc2ccc3nccnc3c2P(C)(C)=O)n1 [compound 110] | 0.57 | 3.7 | 162 | 1.54 | 10.9 |
| COc1cc(N2C[C@@H](C)O[C@@H](C)C2)c(-c2cnn(C)c2)cc1Nc1ncc(Br)c(Nc2ccc3nccnc3c2P(C)(C)=O)n1 [compound 111] | 1.38 | 3.22 | 210 | 5.65 | 4.79 |
| COc1cc(N2CCN(C(N)=O)CC2)c(-c2cnn(C)c2)cc1Nc1ncc(Br)c(Nc2ccc3nccnc3c2P(C)(C)=O)n1 [compound 112] | 0.26 | 57 | 1100 | 0.92 | 161 |
| COc1cc(N2C[C@H]3C[C@@H]2CO3)c(-c2cnn(C)c2)cc1Nc1ncc(Br)c(Nc2ccc3nccnc3c2P(C)(C)=O)n1 [compound 114] | 0.56 | 5.86 | 271 | 5.41 | 11.2 |
| COc1cc(N2CCOC(CO)C2)c(-c2cnn(C)c2)cc1Nc1ncc(Br)c(Nc2ccc3nccnc3c2P(C)(C)=O)n1 (centres unmarked) [compound 115] | 0.4 | 6.53 | 159 | 1.65 | 16.1 |
| COc1cc(N2CCN(C(=O)C3CC3)CC2)c(-c2cnn(C)c2)cc1Nc1ncc(Br)c(Nc2ccc3nccnc3c2P(C)(C)=O)n1 [compound 116] | 1.31 | 2.25 | 169 | 3.13 | 8.15 |
| COc1cc(N2CCC(N3CCN(C)CC3)CC2)c(-c2cnn(C)c2)cc1Nc1ncc(F)c(Nc2ccc3nccnc3c2P(C)(C)=O)n1 [compound 119] | 1.3 | 36.6 | 639 | 4.07 | 239 |
| COc1cc(N2CCOC(C)(C)C2)c(-c2cnn(C)c2)cc1Nc1ncc(Br)c(Nc2ccc3nccnc3c2P(C)(C)=O)n1 [compound 120] | 1.17 | 2.62 | 197 | 9.84 | 8.67 |
| COc1cc(N2CCC(O)CC2)c(-c2cnn(C)c2)cc1Nc1ncc(Br)c(Nc2ccc3nccnc3c2P(C)(C)=O)n1 [compound 121, (6-((5-bromo-2-((4-(4-hydroxypiperidin-1-yl)-2-methoxy-5-(1-methyl-1H-pyrazol-4-yl)phenyl)amino]pyrimidin-4-yl)amino)quinoxalin-5-yl)dimethylphosphine oxide] | 0.25 | 1.61 | 150 | 0.67 | 6.16 |

Source: US20230219986A1, “NOVEL AMINOPYRIMIDINE EGFR INHIBITOR” (QILU PHARMACEUTICAL CO., LTD., priority 2020, published 2023)
